The target in this data set is T1, bovine trypsin (Bos taurus, UniProt P00760).
T1 sequence (P00760 24-246): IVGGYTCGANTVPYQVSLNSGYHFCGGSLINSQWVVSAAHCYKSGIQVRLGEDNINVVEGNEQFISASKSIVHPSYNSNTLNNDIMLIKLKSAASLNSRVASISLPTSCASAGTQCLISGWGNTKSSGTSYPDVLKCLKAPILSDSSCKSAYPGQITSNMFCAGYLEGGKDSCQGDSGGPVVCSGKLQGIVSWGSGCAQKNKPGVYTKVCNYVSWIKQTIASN
Nature of the data set: In vitro stability against proteolysis. The following applies: bovine trypsin (1000 U/mL stock, 100 µL) with 1 mM CaCl2 in PBS + 400 µL antigen solution (PJ8 1.25 mg/mL in PBS); 37 °C; HPLC with calibration curve.

No end group written: not given here.

On to “AKFVAAWTLKAAAQAEDKVKQSREAKKQVEKALKQLEDKVQ-NH2 [PJ8]”, for which the “time to full degradation by trypsin” value is given as no more than 30 min.

For the origin of these results see PMC10893271, “Polymeric Nanoparticles as Oral and Intranasal Peptide Vaccine Delivery Systems: The Role of Shape and Conjugation” (Vaccines, 2024).
